Data published in publication PMC12728192, “The dynamic lateral gate of the mitochondrial β-barrel biogenesis machinery is blocked by darobactin A” (Nature Communications, 2025).

Target: T1, T. thermophilus SAM complex (TtSAM; Sam50:Sam35:Sam37) (Thermothelomyces thermophilus, UniProt G2QFF9)
T1 construct: gene MYCTH_2094326; codon-optimized, co-expressed in S. cerevisiae W303.1B; Strep-Tactin purified monomeric 1:1:1 complex in LMNG/GDN or GDN; 10xHis or TwinStrep tags with linkers and TEV sites in some constructs; with Sorting and assembly machinery subunit Sam35; Sorting and assembly machinery subunit Sam37
Test: cryo-EM structure; LC/MS of purified complex
Format: binding
Settings: co-purified from yeast membranes; modelled on back side of Sam50 barrel and beneath Sam37 cytosolic domain

T1 sequence (G2QFF9 entry or part of it): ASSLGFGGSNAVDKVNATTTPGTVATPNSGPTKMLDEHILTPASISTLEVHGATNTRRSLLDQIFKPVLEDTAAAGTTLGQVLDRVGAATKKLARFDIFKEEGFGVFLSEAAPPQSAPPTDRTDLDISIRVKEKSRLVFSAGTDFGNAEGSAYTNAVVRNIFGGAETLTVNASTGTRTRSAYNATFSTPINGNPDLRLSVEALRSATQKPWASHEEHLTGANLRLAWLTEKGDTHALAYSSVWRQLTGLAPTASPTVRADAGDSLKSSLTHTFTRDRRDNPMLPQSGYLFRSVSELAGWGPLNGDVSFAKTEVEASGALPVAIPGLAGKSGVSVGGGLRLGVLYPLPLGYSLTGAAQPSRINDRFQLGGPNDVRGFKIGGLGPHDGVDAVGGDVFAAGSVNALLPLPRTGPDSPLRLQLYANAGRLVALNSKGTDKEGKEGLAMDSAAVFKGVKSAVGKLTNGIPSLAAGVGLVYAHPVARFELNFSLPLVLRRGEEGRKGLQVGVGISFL
T1 sequence (G2Q6R7 entry or part of it, further chain): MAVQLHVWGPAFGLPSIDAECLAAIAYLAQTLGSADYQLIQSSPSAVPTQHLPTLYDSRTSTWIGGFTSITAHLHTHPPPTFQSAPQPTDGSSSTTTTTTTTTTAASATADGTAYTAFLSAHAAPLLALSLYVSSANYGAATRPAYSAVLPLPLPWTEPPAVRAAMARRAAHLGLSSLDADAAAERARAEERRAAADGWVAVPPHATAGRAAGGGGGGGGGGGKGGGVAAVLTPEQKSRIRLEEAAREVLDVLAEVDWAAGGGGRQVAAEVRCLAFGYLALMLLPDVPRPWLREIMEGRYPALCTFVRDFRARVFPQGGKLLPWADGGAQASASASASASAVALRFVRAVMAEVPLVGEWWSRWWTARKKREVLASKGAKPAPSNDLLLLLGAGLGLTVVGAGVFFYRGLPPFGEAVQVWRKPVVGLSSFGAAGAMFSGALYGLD
T1 sequence (G2QAT9 entry or part of it, further chain): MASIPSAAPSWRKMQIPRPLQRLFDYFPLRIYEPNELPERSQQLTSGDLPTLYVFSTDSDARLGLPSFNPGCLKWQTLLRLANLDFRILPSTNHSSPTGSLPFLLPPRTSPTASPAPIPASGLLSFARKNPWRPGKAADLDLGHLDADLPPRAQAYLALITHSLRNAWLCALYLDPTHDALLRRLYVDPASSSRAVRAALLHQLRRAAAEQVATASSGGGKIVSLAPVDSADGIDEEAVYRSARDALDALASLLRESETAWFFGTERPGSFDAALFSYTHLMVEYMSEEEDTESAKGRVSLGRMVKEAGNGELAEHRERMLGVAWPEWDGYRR

CC(C)[C@@H](C)/C=C/[C@@H](C)[C@H]1CC[C@H]2C3=CC=C4C[C@@H](O)CC[C@]4(C)[C@H]3CC[C@]12C [ergosterol]
cryo-EM structure; LC/MS of purified complex: We have modeled these lipids as ergosterol molecules
